Results as given in a melting point compilation (Tetko et al.).

## O=C(O)CN(CC(=O)O)Cc1cc2c(c(O)c1O)C(=O)c1ccccc1C2=O
  melting point: 190 °C

## Cc1ccc(-c2csc(/C(C#N)=N\Nc3ccc(Cl)cc3)n2)cc1
  melting point: 172 °C

## C1CN(CCN2CCOCC2)CCO1
  melting point: 75 °C

## OC1C2CC3CC(C2)CC1C3 (stereo unspecified)
  melting point: 301 °C

## FC(F)(F)c1cnc(Cl)c(Cl)c1
  melting point: 8 to 9 °C

## Nc1ccc(S(=O)(=O)Nc2cnccn2)cc1
  melting point: 251 °C

## ClC(Cl)C(Cl)(Cl)C(Cl)(Cl)Cl
  melting point: 29.4 °C

## COC(=O)[C@H](CC(=O)O)Cc1ccc2ccccc2c1
  melting point: 64.7 °C

## NC(=O)C(CCN1CCCCCC1)(c1ccccc1)c1ccccc1
  melting point: 142 °C

## O=Cc1ccc(CBr)cc1
  melting point: 99 to 100 °C

## O=C(O)C(CCCc1ccccc1)c1ccccc1 (stereo unspecified)
  melting point: 78 °C

## Cc1c2cccc(-c3ccccc3)c2cc2c(-c3ccccc3)cccc12
  melting point: 177 °C

## NS(=O)(=O)c1cc2c(s1)S(=O)(=O)CCC2=O
  melting point: 242 °C

## N#C/C(=N\Nc1cccc(O)c1)c1nc2ccccc2s1
  melting point: 175 °C

## O=C(Cl)c1ccc2c(c1)CCO2
  melting point: 49 to 51 °C

## COc1ccc(-n2cncn2)cc1
  melting point: 97 °C

## CC(C)CSCC(C)C
  melting point: -106 °C

## C[Si](C)(Cl)C(Cl)Cl
  melting point: -48 °C

## C#CCCCCCCCCC
  melting point: -25 °C

## CC(=O)N(c1ccc(C)cc1)c1nc(CCl)cs1
  melting point: 124 to 125 °C

## CC1CCC2C1C1C(CCC2(C)O)C1(C)C (stereo unspecified)
  melting point: 105 °C

## c1ccc(C(c2ccccc2)c2ccccn2)cc1
  melting point: 54 to 61 °C

## CN(C(=S)Cl)c1ccc(Cl)cc1
  melting point: 76 to 78 °C

## Cc1cc(=O)[nH]c2c(/N=N/c3cccc([N+](=O)[O-])c3)c(N)nn12
  melting point: 318 °C

## CC(C)(CO)[N+](=O)[O-]
  melting point: 89.5 °C

## COc1cccc(F)c1
  melting point: -35 °C

## Cc1cccc([N+](=O)[O-])c1O
  melting point: 70 °C

## CCc1ccccc1Cc1ccccc1
  melting point: -11 °C

## Fc1ccccc1Cl
  melting point: -43 °C

## Cc1ccccc1CCO
  melting point: 2 °C

## CC1(C)C(C=C(Cl)Cl)C1C(=O)OCc1cccc(Oc2ccccc2)c1 (stereo unspecified)
  melting point: 34.5 °C

## CC(C)[C@]12C/C(=N\NC(N)=O)[C@H](C)[C@H]1C2
  melting point: 174 °C

## NC(=O)c1c(F)cccc1Cl
  melting point: 141 °C

## CC(C)(C)OC(=O)n1cc(C(=O)O)c2c(Br)cccc21
  melting point: 149 to 150 °C

## O=C(O)C1CCCC1C(=O)O (stereo unspecified)
  melting point: 160 °C

## COc1ccc(-c2ccnc(S)n2)cc1
  melting point: 202 °C

## CCCCCCCCOC(=O)CCCCC(=O)OCCCCCCCC
  melting point: -70 °C

## CC(=O)c1c(O)ccc2ccccc12
  melting point: 65 °C

## CC(C)(C)c1ccc2c(c1)-c1cc(C(C)(C)C)ccc1C2
  melting point: 81 °C

## Cc1ccc(C(C)C(=O)O)cc1 (stereo unspecified)
  melting point: 41 °C

## Oc1ccc(C(c2ccccc2)(c2ccccc2)c2ccccc2)cc1
  melting point: 283 to 289 °C

## CCOC(=O)C1C(c2ccccc2O)C(C(=O)OCC)C(O)(C(F)(F)F)NC1(O)C(F)(F)F (stereo unspecified)
  melting point: 91 °C

## CC(=O)Nc1ccc(Br)c(C(F)(F)F)c1
  melting point: 116 to 119 °C

## Nc1ccc(NC(=O)c2ccc(N)cc2)cc1
  melting point: 203 to 207 °C

## CCOc1cc2c(cc1OCC)C(CC(=O)O)NCC2 (stereo unspecified)
  melting point: 259 to 260 °C

## CCCCCCCCNCCCCCCCC
  melting point: 35.5 °C

## CCOC(=O)c1sc2sc(C(=O)OCC)c(N)c2c1N
  melting point: 200 °C

## CCOC(=O)C(C#N)=NNc1ccc(Cl)cc1
  melting point: 161 to 162 °C

## CCCc1cc(C(C)=O)c(O)cc1O
  melting point: 99 to 101 °C

## Cn1[nH]c(N)c2c(=O)ccnc1-2
  melting point: 218 °C

## CCOC(=O)c1sc(-c2ccccn2)nc1CBr
  melting point: 102 °C

## COc1ccc(/C=C(\C(N)=O)c2nc3ccccc3s2)cc1
  melting point: 168 °C

## NCCc1ccc(O)cc1
  melting point: 164 °C

## OCc1cn2ccccc2n1
  melting point: 102 to 103 °C

## O=C1C(=C2C=Cc3ccc(O)cc3N2)C(=O)c2ccccc21
  melting point: 266 to 267 °C

## S=C(Nc1cccc2ccccc12)Nc1cccc2ccccc12
  melting point: 208 °C

## O=Cc1ccc(-c2ccc(Cl)cc2)o1
  melting point: 128 to 131 °C

## NNc1cc(C(F)(F)F)ccc1Cl
  melting point: 64 to 68 °C

## Cc1ccc(/N=N/C2C(=O)NN(c3ccccc3)C2=O)cc1 (stereo unspecified)
  melting point: 247 °C

## NCCCNC1CCCCC1
  melting point: -18 °C

## CCC1(C)CC(=O)NC(=O)C1
  melting point: 126 °C

## FC(F)(Cl)C(Cl)(Cl)C(F)(F)Cl
  melting point: -42.9 °C

## Nc1ccc(-c2ccc(NNc3ccccc3)cc2)cc1
  melting point: 140 °C

## Cc1c(F)ccc(C(=O)O)c1Cl
  melting point: 188 °C

## CC(C(C#N)C(N)=O)C(C#N)C(N)=O (stereo unspecified)
  melting point: 151 to 160 °C

## O=C(O)c1c[nH]c(=O)c(Cl)c1
  melting point: 284 to 286 °C

## Cc1cc2cc3ccccc3cc2cc(C)c1=O
  melting point: 182 °C

## COc1c(C)c(C)c(OC)c(C=O)c1C
  melting point: 86 °C

## Cc1c(Cl)cc(F)cc1S(N)(=O)=O
  melting point: 118 to 120 °C

## Cc1ccc(S(=O)(=O)CC(=O)O)cc1
  melting point: 118 °C

## CCCOc1cc(O)cc(OCCC)c1
  melting point: 43 to 48 °C

## Cc1noc2c1c(=O)n(-c1ccccc1)c1ccccc21
  melting point: 283 °C

## CNC(=O)ON=C(C)C(C)SC (stereo unspecified)
  melting point: 37 °C

## O=C(O)C=Cc1ccc(Sc2ccc(Br)cc2)c([N+](=O)[O-])c1
  melting point: 232 to 234 °C

## N#Cc1cnccc1/C=C/c1ccccc1
  melting point: 128 to 130 °C

## COC(=O)c1ccc(Cl)nc1
  melting point: 86 °C

## CCOC(=O)c1c(SC)nn(C(=O)Cc2ccccc2)c1N
  melting point: 120 °C

## O=C(O)c1cc(-c2cccs2)on1
  melting point: 168 °C

## COC(=O)c1c(C(F)F)nc(C(F)(F)F)c(C2=NCCS2)c1CC(C)C
  melting point: 78 °C

## N#Cc1ccc(F)cc1Cl
  melting point: 64 °C

## COc1ccc2cc([N+](=O)[O-])ccc2c1
  melting point: 134 °C

## Cc1c(N)cc([N+](=O)[O-])cc1[N+](=O)[O-]
  melting point: 174 °C

## O=C(O)C1OC1C(=O)O (stereo unspecified)
  melting point: 148 to 149 °C

## CCSC(SCC)C(O)C(O)C(O)C(O)CO (stereo unspecified)
  melting point: 140 to 142 °C

## CCOC(=O)c1c(-c2ccc(F)cc2)csc1N
  melting point: 92.5 to 95.5 °C

## CC(C)(C)OC(=O)N=NC(=O)OC(C)(C)C
  melting point: 90 to 92 °C

## CC(C)C(C)C=CC(C)C1CCC2C3=CC=C4CC(O)CCC4(C)C3CCC21C (stereo unspecified)
  melting point: 170 °C

## NS(=O)(=O)c1ccc(S(=O)(=O)CCO)c(F)c1
  melting point: 165 °C

## OCCNCCNCCO
  melting point: 97.5 °C

## Cc1nc(O)nc(O)c1C
  melting point: 297 to 300 °C

## CCCCCCCCCCCCCCCC(=O)OCC
  melting point: 24 °C

## Cc1ccc(Oc2ncccc2N)c2c1CCC2
  melting point: 150 °C

## O=C(O)c1ccc2sccc2c1
  melting point: 213 to 214 °C

## CC(=O)OC[C@H]1O[C@@H](OC(C)=O)[C@H](OC(C)=O)[C@@H]1OC(C)=O
  melting point: 79 to 81 °C

## C#CC#C
  melting point: -36.4 °C

## O=C(O)c1cccnc1Cl
  melting point: 176 to 178 °C
